According to patent publication US9399626B2, “2-thiopyrimidinones” (Pfizer Inc., priority 2011, dated 2016):
Counter-ions that a name gives are not always drawn.

Biological target: T1, MPO (purified from human polynuclear leukocytes) (Homo sapiens, UniProt P05164)
T1 construct: purified from human polynuclear leukocytes; purchased Calbiochem/EMD Biosciences; host or cells: human polynuclear leukocytes (natural source)
Assay: MPO Amplex Red Activity Assay
Assay type: biochemical
Settings: Table 1, 2 μM H2O2, pH 7.4
Protocol: MPO Amplex Red Activity Assay.
MPO peroxidase activity was measured by monitoring the formation of resorufin generated from the oxidation of Amplex Red (10-Acetyl-3,7-dihydroxyphenoxazine) (Invitrogen, Carlsbad, Calif.) by MPO (Gomes, Fernandes et al. 2005). Assay mixtures (100 μL total volume) contained 50 mM NaPi pH 7.4, 150 mM NaCl, 1 mM DTPA (diethylenetriaminepentaacetic acid), 2% DMSO, 2 μM H2O2, 30 μM Amplex Red and the reaction was initiated by the addition of […] (purified from human polynuclear leukocytes and purchased from Calbiochem/EMD Biosciences, Gibbstown, N.J.). All assays were performed in 96-well, half-area, black, nonbinding surface, polystyrene plates (Corning) and the production of resorufin (excitation 530 nm, emission 580 nm) was monitored every 20 sec on a Spectramax M2 Microplate Spectrophotometer (Molecular Devices, Palo Alto, Calif.) equipped with Softmax Pro software (Molecular Devices, Palo Alto, Calif.). Reactions to determine the background reaction rate consisted of all assay components and 4 μL of 500 unit/mL bovine catalase (Sigma) in 50 mM KPi pH 7.0. The background rate was subtracted from each reaction progress curve. All data was analyzed using non-linear regression analysis in Microsoft Excel and Kaleidagraph (Synergy Software).
To determine inhibitor potency (kinact/KI) against MPO, the first 600 sec of the reaction progress curves were fit to equation 1, where Vo is the initial rate in RFU/sec and t is time in seconds, to obtain the first order rate constant for enzyme inactivation (kobs) at each inhibitor concentration.
[formula] Equation 1 is a variation of the standard equation for slow binding inhibition where the steady state velocity (Vs) is set to zero. Each kobs value was corrected for auto-inactivation of the enzyme by subtracting the kobs value for the uninhibited reaction. The corrected kobs values were then plotted versus inhibitor concentration ([I]) and fit to equation 2
[formula] where kinact is the maximal rate of inactivation and KI is the inhibitor concentration that yields half the rate of maximal inactivation (Copeland 2005).
Table 1 and (1A) below provides the myeloperoxidase inhibitory activity for the Examples below in accordance with the above-described assay.

T1 sequence (P05164 279-745 limits assumed): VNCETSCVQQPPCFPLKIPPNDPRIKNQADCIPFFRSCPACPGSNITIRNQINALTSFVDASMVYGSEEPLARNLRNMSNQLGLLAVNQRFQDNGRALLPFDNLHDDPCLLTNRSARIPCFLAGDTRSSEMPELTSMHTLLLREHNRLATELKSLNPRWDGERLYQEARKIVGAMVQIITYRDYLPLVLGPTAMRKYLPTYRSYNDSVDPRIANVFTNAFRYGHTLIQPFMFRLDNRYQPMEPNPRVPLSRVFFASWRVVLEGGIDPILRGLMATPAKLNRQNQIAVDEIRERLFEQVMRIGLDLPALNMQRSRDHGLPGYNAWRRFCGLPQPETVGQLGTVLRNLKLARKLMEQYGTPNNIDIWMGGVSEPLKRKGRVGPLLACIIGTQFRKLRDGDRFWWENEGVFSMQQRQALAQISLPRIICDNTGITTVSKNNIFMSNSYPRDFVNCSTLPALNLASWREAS
T1 sequence (P05164 165-273 limits assumed): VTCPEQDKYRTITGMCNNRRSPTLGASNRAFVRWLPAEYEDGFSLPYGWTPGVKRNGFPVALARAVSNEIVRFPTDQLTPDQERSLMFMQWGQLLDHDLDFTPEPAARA

| SMILES | MPO kinact/Ki |
| --- | --- |
| COc1ccc(Cl)cc1-c1cc(=O)[nH]c(=S)n1CCO [Example 64, 6-(5-chloro-2-methoxyphenyl)-1-(2-hydroxyethyl)-2-thioxo-2,3-dihydropyrimidin-4(1H)-one] | 22500 1/s per M |
| COc1ncc(Cl)cc1-c1cc(=O)[nH]c(=S)n1CCO [Example 65, 6-(5-chloro-2-methoxypyridin-3-yl)-1-(2-hydroxyethyl)-2-thioxo-2,3-dihydropyrimidin-4(1H)-one] | 7940 1/s per M |
| COCCn1c(-c2cc3ccccc3n2C)cc(=O)[nH]c1=S [Example 66, 1-(2-methoxyethyl)-6-(1-methyl-1H-indol-2-yl)-2-thioxo-2,3-dihydropyrimidin-4(1H)-one] | 1580 1/s per M |
| COCCn1c(-c2cn(C)c3ccccc23)cc(=O)[nH]c1=S [Example 67, 1-(2-methoxyethyl)-6-(1-methyl-1H-indol-3-yl)-2-thioxo-2,3-dihydropyrimidin-4(1H)-one] | 7520 1/s per M |
| NC(=O)Cn1c(-c2csc3ccccc23)cc(=O)[nH]c1=S [Example 68, 2-[6-(1-benzothien-3-yl)-4-oxo-2-thioxo-3,4-dihydropyrimidin-1(2H)-yl]acetamide] | 1160 1/s per M |
| NC(=O)Cn1c(-c2cc3ccccc3s2)cc(=O)[nH]c1=S [Example 69, 2-[6-(1-benzothien-2-yl)-4-oxo-2-thioxo-3,4-dihydropyrimidin-1(2H)-yl]acetamide] | 4250 1/s per M |
| COCCn1c(-c2ccc(C#N)cc2OC)cc(=O)[nH]c1=S [Example 70, 3-methoxy-4-[3-(2-methoxyethyl)-6-oxo-2-thioxo-1,2,3,6-tetrahydro-pyrimidin-4-yl]benzonitrile] | 1590 1/s per M |
| NCCCn1c(-c2cc3ccccc3s2)cc(=O)[nH]c1=S [Example 71, 1-(3-aminopropyl)-6-(1-benzothien-2-yl)-2-thioxo-2,3-dihydropyrimidin-4(1H)-one hydrochloride] | 3570 1/s per M |
| NCCCn1c(-c2cccc3ncsc23)cc(=O)[nH]c1=S [Example 72, 1-(3-aminopropyl)-6-(1,3-benzothiazol-7-yl)-2-thioxo-2,3-dihydropyrimidin-4(1H)-one trifluoroacetate] | 3580 1/s per M |
| COCCn1c(-c2cccc3ccsc23)cc(=O)[nH]c1=S [Example 73, 6-(1-benzothien-7-yl)-1-(2-methoxyethyl)-2-thioxo-2,3-dihydropyrimidin-4(1H)-one] | 9870 1/s per M |
| COCCn1c(-c2cccc3sccc23)cc(=O)[nH]c1=S [Example 74, 6-(1-benzothien-4-yl)-1-(2-methoxyethyl)-2-thioxo-2,3-dihydropyrimidin-4(1H)-one] | 14400 1/s per M |
| COCCn1c(-c2nc3ccccc3s2)cc(=O)[nH]c1=S [Example 75, 6-(1,3-benzothiazol-2-yl)-1-(2-methoxyethyl)-2-thioxo-2,3-dihydropyrimidin-4(1H)-one] | 2040 1/s per M |
| NCCCn1c(-c2ccc3c(c2)OCCO3)cc(=O)[nH]c1=S [Example 76, 1-(3-aminopropyl)-6-(2,3-dihydro-1,4-benzodioxin-6-yl)-2-thioxo-2,3-dihydropyrimidin-4(1H)-one hydrochloride] | 4190 1/s per M |
| COc1ccccc1-c1cc(=O)[nH]c(=S)n1CCN=C(N)N [Example 77, 2-{2-[6-(2-methoxyphenyl)-4-oxo-2-thioxo-3,4-dihydropyrimidin-1(2H)-yl]ethyl}guanidine hydrochloride] | 6660 1/s per M |
| COCCn1c(-c2cccc3ncsc23)cc(=O)[nH]c1=S [Example 78, 6-(1,3-benzothiazol-7-yl)-1-(2-methoxyethyl)-2-thioxo-2,3-dihydropyrimidin-4(1H)-one] | 9730 1/s per M |
| Cl.NCCCOc1ccccc1-c1cc(=O)[nH]c(=S)n1CCN [Example 79, 1-(2-aminoethyl)-6-[2-(3-aminopropoxy)phenyl]-2-thioxo-2,3-dihydropyrimidin-4(1H)-one hydrochloride] | 1580 1/s per M |
| COCCn1c(-c2cccc3c2OCCO3)cc(=O)[nH]c1=S [Example 80, 6-(2,3-dihydro-1,4-benzodioxin-5-yl)-1-(2-methoxyethyl)-2-thioxo-2,3-dihydropyrimidin-4(1H)-one] | 4130 1/s per M |
| COc1cc(OC)c(-c2cc(=O)[nH]c(=S)n2CCN)cc1C [Example 81, 1-(2-aminoethyl)-6-(2,4-dimethoxy-5-methylphenyl)-2-thioxo-2,3-dihydropyrimidin-4(1H)-one hydrochloride] | 24300 1/s per M |

Next, values leading:

| MPO kinact/Ki | SMILES |
| --- | --- |
| 3390 1/s per M | COc1ccc(-c2cc(=O)[nH]c(=S)n2CCCN)cc1OC [Example 82, 1-(3-aminopropyl)-6-(3,4-dimethoxyphenyl)-2-thioxo-2,3-dihydropyrimidin-4(1H)-one hydrochloride] |
| 3510 1/s per M | COc1ccc(-c2cc(=O)[nH]c(=S)n2CC(N)=O)cc1OC [Example 83, 2-[6-(3,4-dimethoxyphenyl)-4-oxo-2-thioxo-3,4-dihydropyrimidin-1(2H)-yl]acetamide] |
| 6630 1/s per M | COc1cc(-c2cc(=O)[nH]c(=S)n2CCN)c(OC)cc1C [Example 84, 1-(2-aminoethyl)-6-(2,5-dimethoxy-4-methylphenyl)-2-thioxo-2,3-dihydropyrimidin-4(1H)-one hydrochloride] |
| 10700 1/s per M | COc1cc(OC)cc(-c2cc(=O)[nH]c(=S)n2CCCN)c1 [Example 85, 1-(3-aminopropyl)-6-(3,5-dimethoxyphenyl)-2-thioxo-2,3-dihydropyrimidin-4(1H)-one hydrochloride] |
| 3960 1/s per M | COc1cc(OC)cc(-c2cc(=O)[nH]c(=S)n2CC(N)=O)c1 [Example 86, 2-[6-(3,5-dimethoxyphenyl)-4-oxo-2-thioxo-3,4-dihydropyrimidin-1(2H)-yl]acetamide] |
| 15400 1/s per M | COc1ccc(OC)c(-c2cc(=O)[nH]c(=S)n2CCCN)c1 [Example 87, 1-(3-aminopropyl)-6-(2,5-dimethoxyphenyl)-2-thioxo-2,3-dihydropyrimidin-4(1H)-one hydrochloride] |
| 898 1/s per M | NCCCn1c(-c2ccccc2OCCO)cc(=O)[nH]c1=S [Example 88, 1-(3-aminopropyl)-6-[2-(2-hydroxyethoxy)phenyl]-2-thioxo-2,3-dihydropyrimidin-4(1H)-one hydrochloride] |
| 276 1/s per M | COc1ccc(-c2cc(=O)[nH]c(=S)n2CC(=O)O)c(OC)c1 [Example 89, [6-(2,4-dimethoxyphenyl)-4-oxo-2-thioxo-3,4-dihydropyrimidin-1(2H)-yl]acetic acid] |
| 11600 1/s per M | COc1cc(OC)c(-c2cc(=O)[nH]c(=S)n2CCN)cc1F [Example 90, 1-(2-aminoethyl)-6-(5-fluoro-2,4-dimethoxyphenyl)-2-thioxo-2,3-dihydropyrimidin-4(1H)-one hydrochloride] |
| 9360 1/s per M | COc1ccc(-c2cc(=O)[nH]c(=S)n2CCCN)c(Cl)c1 [Example 91, 1-(3-aminopropyl)-6-(2-chloro-4-methoxyphenyl)-2-thioxo-2,3-dihydropyrimidin-4(1H)-one hydrochloride] |
| 22100 1/s per M | COc1ccc(Cl)cc1-c1cc(=O)[nH]c(=S)n1CCCN [Example 92, 1-(3-aminopropyl)-6-(5-chloro-2-methoxyphenyl)-2-thioxo-2,3-dihydropyrimidin-4(1H)-one hydrochloride] |
| 5120 1/s per M | COc1ncc(Cl)cc1-c1cc(=O)[nH]c(=S)n1CCCN [Example 93, 1-(3-aminopropyl)-6-(5-chloro-2-methoxypyridin-3-yl)-2-thioxo-2,3-dihydropyrimidin-4(1H)-one hydrochloride] |
| 6930 1/s per M | COc1ccc(Cl)cc1-c1cc(=O)[nH]c(=S)n1CCCO [Example 94, 6-(5-chloro-2-methoxyphenyl)-1-(3-hydroxypropyl)-2-thioxo-2,3-dihydropyrimidin-4(1H)-one] |
| 15400 1/s per M | COc1cc2ccccc2cc1-c1cc(=O)[nH]c(=S)n1CCN [Example 95, 1-(2-aminoethyl)-6-(3-methoxy-2-naphthyl)-2-thioxo-2,3-dihydropyrimidin-4(1H)-one hydrochloride] |
| 2200 1/s per M | COCCn1c(-c2cc(Cl)cnc2OC)cc(=O)[nH]c1=S [Example 96, 6-(5-chloro-2-methoxypyridin-3-yl)-1-(2-methoxyethyl)-2-thioxo-2,3-dihydropyrimidin-4(1H)-one] |
